{"source": "patent US20050113348A1", "about": "“Vitamin D and vitamin D analogs or derivatives as new anti-hypertensive agents” (priority 2003, published 2005)", "key": {"[1]": {"tested_on": "renin mRNA, As4.1-hVDR cells", "assay": "Renin mRNA by Northern blot in As4.1-hVDR cells (vitamin D analog screening)", "format": "cell-based, mouse", "procedure": "Vitamin D analogues listed in TABLE 1 were used to treat As4.1-hVDR cells at 10^−10, 10^−9 and 10^−8 M. Renin mRNA was analyzed by Northern blot. 36B4 is a control mRNA and represents a mouse acidic ribosomal phosphoprotein.\nFIG. 4 is an histogram of evaluation of Gemini analogues by Northern blot analysis. The 11 Gemini compounds listed in TABLE 2 (indicated) were used to treat As4.1 hVDR cells at 10^−10, 10^−9, and 10^−8 M for 24 hours. Renin mRNA was quantitated by Northern blots. The quantitative data obtained at 10^−10 and 10^−9 M are shown in A and B. The # of each compound corresponds to the number shown in TABLE 2. E, ethanol-treated control, VD, 1,25(OH)2D3.\n(§1) RNA isolation and northern blot. The kidney and liver were dissected and immediately placed into the Trizol Reagent (Invitrogen, Grand Island, N.Y.) for total RNA isolation according to the manufacturer's instruction. To determine renin or angiotensinogen mRNA expression, total RNA (20 μg/lane) was separated on a 1.2% agarose gel containing 0.6 M formaldehyde, transferred onto a Nylon membrane (MSI, Westborough, Mass.) and crosslinked in a UV crosslinker (Bio-Rad, Hercules, Calif.). Hybridization was performed as described by Li et al. (2001). Mouse renin and angiotensinogen cDNA probes were labeled with ^32P-dATP (ICN, Costa Mesa, Calif.) using the Prime-a-gene Labeling System (Promega, Madison, Wis.). After hybridization and washing, membranes were exposed to X-ray films at −80° C. for autoradiography. The relative amount of mRNA was quantitated using a Phospholmager (Molecular Dynamics, Sunnyvale, Calif.) and normalized with 36B4 mRNA.\nAs4.1 cell culture and transfection. As4.1 cells (ATCC, Manassas, Va.) were cultured in DMEM supplemented with 10% FBS at 37° C. and 5% CO2. For transient transfection, the cells were grown in 10-cm dishes to 50% confluence and transfected with pcDNA3.1, pcDNA-hVDR or pcDNA-PTH/PTHrPR plasmid (10 μg DNA/dish) by the standard calcium phosphate method. Twenty-four hr after transfection, the cells were treated for 24 hr with 5×10^−8 M of 1,25(OH)2D3 or ethanol in serum-free media, or with different doses of bovine PTH(1-34) as indicated. Total RNA was isolated and analyzed for renin mRNA expression by northern blot. For stable transfection, As4.1 cells were transfected with pcDNA3.1 or pcDNA-hVDR plasmid by the use of Superfect reagent (Qiagen, Valencia, Calif.) and selected with 350 μg/ml of G418 for two weeks. Individual colonies were picked, expanded and selected for VDR expression. The As4.1-hVDR stable clones were treated with different doses of 1,25(OH)2D3 for 24 hr in serum-free media, and total RNA were analyzed by northern blot to examine renin expression."}, "renin mRNA, As4.1 cells": {"tested_on": "renin mRNA, As4.1 cells", "assay": "Renin mRNA by northern blot in As4.1 cells with or without transient transfection", "format": "cell-based, mouse", "conditions": "5×10^−8 M", "text": "A. As4.1 cells were transiently transfected with (+) or without (−) pcDNA-hVDR plasmid containing the full-length human VDR cDNA and then. treated with 5×10^−8 M of 1,25(OH)2D3 (+) or ethanol (−) for 24 hrs. Total cellular RNA was isolated and analyzed by northern blot with renin and 36B4 cDNA probes. B. Quantitative results of northern blot analyses obtained from three independent experiments. C, ethanol-treated; VD, 1,25(OH)2D3-treated; T, transfected with pcDNA-hVDR and treated with ethanol; T/VD, transfected with pcDNA-hVDR and treated with 1,25(OH)2D3. *, P<0.001 vs. C, VD or T value. C. Renin mRNA expression in As4.1 cells (left panel), and in As4.1 cells transfected with pcDNA-PTH/PTHrPR containing the rat PTH/PTHrP receptor cDNA (right panel) and treated with bovine PTH (1-34) as indicated. −, untreated.\nas §1\nAs4.1 cell culture and transfection. […] Total RNA was isolated and analyzed for renin mRNA expression by northern blot. […] The As4.1-hVDR stable clones were treated with different doses of 1,25(OH)2D3 for 24 hr in serum-free media, and total RNA were analyzed by northern blot to examine renin expression."}}, "data": [{"smiles": "C=C1/C(=C\\C=C2/CCC[C@]3(C)[C@@H]([C@H](C)CCCC(C)(C)O)CC[C@@H]23)C[C@@H](O)C[C@@H]1O", "note": "[1,25-dihydroxyvitamin D3]", "values": [{"measurement": "Renin expression in stable As4.1-hVDR clones at different doses", "setting": "[1]; not seen in As4.1-pcDNA cells", "value": "dose-dependent suppression"}, {"measurement": "Reduction of the level of renin mRNA", "setting": "[1]; stable As4.1-hVDR cells, 10^−8 M, 24 hr", "value": "about 90%"}, {"measurement": "Time of treatment after which suppression of renin mRNA was evident", "setting": "[1]; time-course studies, As4.1-hVDR cells", "value": 6, "unit": "h"}, {"measurement": "Renin mRNA expression in As4.1 cells", "setting": "renin mRNA, As4.1 cells; As4.1 cells not transfected", "value": "moderate reduction"}, {"measurement": "Reduction of renin mRNA expression", "setting": "renin mRNA, As4.1 cells; As4.1 cells transiently transfected with pcDNA-hVDR, 24 hrs", "value": "about 90%"}]}]}
